In paper PMC11167047 (Cell Death Discovery, 2024):

Key:
Assay in all cases: kinome screen (33PanQinase)
Assay type in all cases: biochemical
AKT2 = target: T1, AKT2 (Homo sapiens, UniProt P31751)
T1 construct: purchased Reaction Biology Europe GmbH (formerly ProQinase)
Protocol: (§1) The Kinome Screening was performed by Reaction Biology Europe GmbH (http://reactionbiology.com; Freiburg i. Br., Germany).

WNK2 = target: T2, WNK2 (Homo sapiens, UniProt Q9Y3S1)
T2 construct: purchased Reaction Biology Europe GmbH (formerly ProQinase)
Protocol: as §1

ERK1 = target: T3, ERK1 (Homo sapiens, UniProt P27361)
T3 construct: purchased Reaction Biology Europe GmbH (formerly ProQinase)
Protocol: as §1

GRK6 = target: T4, GRK6 (Homo sapiens, UniProt P43250)
T4 construct: purchased Reaction Biology Europe GmbH (formerly ProQinase)
Protocol: as §1

CDK4/CycD3 = target: T5, CDK4/CycD3 (Homo sapiens, UniProt P11802)
T5 construct: purchased Reaction Biology Europe GmbH (formerly ProQinase)
T5 sequence (P11802 whole entry): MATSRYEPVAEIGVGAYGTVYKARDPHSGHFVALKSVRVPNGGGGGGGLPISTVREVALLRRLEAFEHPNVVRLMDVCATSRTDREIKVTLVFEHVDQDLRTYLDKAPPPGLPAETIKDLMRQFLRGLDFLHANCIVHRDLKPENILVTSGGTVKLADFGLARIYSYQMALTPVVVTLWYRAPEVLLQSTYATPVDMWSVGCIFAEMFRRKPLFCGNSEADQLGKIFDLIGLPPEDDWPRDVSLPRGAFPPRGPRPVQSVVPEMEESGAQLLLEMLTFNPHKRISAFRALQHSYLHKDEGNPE
T5 sequence (P30281 whole entry partner): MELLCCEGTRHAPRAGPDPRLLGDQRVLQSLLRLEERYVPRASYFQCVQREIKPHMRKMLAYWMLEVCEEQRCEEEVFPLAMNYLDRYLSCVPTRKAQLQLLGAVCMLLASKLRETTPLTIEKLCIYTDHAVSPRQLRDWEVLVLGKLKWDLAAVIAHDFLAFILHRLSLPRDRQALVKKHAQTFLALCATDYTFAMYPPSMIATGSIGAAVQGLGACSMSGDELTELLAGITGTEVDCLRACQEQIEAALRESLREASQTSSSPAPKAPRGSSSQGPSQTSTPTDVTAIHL
Protocol: as §1

PRKD2 = target: T6, PRKD2 (Homo sapiens, UniProt Q9BZL6)
T6 construct: purchased Reaction Biology Europe GmbH (formerly ProQinase)
T6 sequence (Q9BZL6 1-878): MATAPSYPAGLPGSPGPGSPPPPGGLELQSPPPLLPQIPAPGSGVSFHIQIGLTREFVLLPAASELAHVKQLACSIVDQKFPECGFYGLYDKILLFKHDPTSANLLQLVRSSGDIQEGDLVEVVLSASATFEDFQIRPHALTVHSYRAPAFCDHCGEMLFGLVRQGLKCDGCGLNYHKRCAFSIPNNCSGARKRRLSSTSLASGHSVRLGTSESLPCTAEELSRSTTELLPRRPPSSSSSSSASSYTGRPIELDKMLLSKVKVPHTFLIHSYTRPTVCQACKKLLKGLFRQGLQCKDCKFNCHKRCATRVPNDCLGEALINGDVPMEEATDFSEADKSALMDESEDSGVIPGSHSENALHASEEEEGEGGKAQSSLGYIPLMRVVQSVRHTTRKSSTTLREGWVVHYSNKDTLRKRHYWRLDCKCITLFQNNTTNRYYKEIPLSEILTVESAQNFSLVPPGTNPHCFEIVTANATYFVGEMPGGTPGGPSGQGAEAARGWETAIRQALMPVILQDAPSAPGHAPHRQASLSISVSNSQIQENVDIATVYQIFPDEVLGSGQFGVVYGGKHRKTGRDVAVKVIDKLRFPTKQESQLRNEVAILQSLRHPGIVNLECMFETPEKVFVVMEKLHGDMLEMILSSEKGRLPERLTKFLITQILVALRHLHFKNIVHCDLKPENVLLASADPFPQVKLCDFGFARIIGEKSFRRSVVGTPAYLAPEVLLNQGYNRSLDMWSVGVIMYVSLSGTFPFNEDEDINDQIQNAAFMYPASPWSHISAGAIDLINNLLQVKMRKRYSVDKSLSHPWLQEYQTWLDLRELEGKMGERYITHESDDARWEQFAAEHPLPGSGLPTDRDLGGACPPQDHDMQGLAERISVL
Protocol: as §1

MYLK2 = target: T7, MYLK2 (Homo sapiens, UniProt Q9H1R3)
T7 construct: purchased Reaction Biology Europe GmbH (formerly ProQinase)
Protocol: as §1

ROCK2 = target: T8, ROCK2 (Homo sapiens, UniProt O75116)
T8 construct: purchased Reaction Biology Europe GmbH (formerly ProQinase)
Protocol: as §1

AuroraC = target: T9, AuroraC (Homo sapiens, UniProt Q9UQB9)
T9 construct: purchased Reaction Biology Europe GmbH (formerly ProQinase)
T9 sequence (Q9UQB9 1-309): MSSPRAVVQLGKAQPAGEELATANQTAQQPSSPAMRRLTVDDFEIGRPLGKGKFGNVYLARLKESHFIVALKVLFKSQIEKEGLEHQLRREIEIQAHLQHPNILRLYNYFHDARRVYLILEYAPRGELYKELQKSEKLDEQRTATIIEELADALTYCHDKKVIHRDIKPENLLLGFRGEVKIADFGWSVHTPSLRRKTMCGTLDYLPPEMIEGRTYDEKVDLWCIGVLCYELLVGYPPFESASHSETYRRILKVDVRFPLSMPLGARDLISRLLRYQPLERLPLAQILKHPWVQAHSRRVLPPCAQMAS
Protocol: as §1

LIMK2 = target: T10, LIMK2 (Homo sapiens, UniProt P53671)
T10 construct: purchased Reaction Biology Europe GmbH (formerly ProQinase)
T10 sequence (P53671 whole entry): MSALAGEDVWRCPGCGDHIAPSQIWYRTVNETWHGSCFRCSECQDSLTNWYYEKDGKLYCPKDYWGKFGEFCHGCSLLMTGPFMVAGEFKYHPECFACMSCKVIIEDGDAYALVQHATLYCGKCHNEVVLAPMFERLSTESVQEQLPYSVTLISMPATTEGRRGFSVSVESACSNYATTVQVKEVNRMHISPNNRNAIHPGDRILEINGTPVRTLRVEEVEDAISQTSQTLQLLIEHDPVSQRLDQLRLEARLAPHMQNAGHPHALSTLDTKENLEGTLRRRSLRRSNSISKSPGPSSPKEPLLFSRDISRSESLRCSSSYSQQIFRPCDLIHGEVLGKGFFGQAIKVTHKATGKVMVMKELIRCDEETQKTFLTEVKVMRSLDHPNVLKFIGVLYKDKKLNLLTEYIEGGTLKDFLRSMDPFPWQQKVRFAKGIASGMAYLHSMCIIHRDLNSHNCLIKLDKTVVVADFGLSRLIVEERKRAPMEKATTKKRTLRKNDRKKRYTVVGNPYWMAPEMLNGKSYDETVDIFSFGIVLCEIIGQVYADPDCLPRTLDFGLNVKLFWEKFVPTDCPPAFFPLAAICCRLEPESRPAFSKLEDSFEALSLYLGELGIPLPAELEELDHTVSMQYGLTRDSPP
Protocol: as §1

CDC7/DBF4 = target: T11, CDC7/DBF4 (Homo sapiens, UniProt O00311)
T11 construct: purchased Reaction Biology Europe GmbH (formerly ProQinase)
T11 sequence (O00311 whole entry): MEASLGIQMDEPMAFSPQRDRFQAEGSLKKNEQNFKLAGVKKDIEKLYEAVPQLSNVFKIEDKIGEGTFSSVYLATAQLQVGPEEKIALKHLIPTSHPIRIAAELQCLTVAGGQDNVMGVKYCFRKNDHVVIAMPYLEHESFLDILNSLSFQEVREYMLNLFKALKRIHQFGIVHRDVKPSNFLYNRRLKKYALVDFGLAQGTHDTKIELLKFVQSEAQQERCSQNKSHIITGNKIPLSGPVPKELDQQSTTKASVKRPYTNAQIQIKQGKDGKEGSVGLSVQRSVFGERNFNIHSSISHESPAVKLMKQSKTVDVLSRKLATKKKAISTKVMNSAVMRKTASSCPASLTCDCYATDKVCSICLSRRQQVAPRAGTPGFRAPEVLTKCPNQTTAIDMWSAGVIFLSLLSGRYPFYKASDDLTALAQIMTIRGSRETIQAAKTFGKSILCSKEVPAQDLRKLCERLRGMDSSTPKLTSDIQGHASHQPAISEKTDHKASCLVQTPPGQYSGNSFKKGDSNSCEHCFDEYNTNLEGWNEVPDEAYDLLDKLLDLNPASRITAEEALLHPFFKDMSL
T11 sequence (Q9UBU7 whole entry partner): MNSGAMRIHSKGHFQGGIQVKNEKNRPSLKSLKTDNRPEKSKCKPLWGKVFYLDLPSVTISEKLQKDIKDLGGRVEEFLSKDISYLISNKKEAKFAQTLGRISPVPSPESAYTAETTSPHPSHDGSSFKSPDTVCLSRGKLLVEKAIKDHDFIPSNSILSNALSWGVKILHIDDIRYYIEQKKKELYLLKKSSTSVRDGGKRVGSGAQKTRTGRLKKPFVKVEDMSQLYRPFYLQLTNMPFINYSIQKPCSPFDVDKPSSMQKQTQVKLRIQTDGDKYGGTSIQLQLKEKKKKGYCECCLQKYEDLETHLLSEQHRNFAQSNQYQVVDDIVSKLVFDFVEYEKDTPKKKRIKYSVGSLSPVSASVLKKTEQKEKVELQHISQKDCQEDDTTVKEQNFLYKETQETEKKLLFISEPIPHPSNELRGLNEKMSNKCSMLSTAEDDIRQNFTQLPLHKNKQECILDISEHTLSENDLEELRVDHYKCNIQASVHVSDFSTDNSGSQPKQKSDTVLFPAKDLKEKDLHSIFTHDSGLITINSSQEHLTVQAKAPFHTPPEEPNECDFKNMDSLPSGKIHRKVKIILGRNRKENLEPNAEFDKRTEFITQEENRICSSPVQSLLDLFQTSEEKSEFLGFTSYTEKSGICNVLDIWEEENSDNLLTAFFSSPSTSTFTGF
Protocol: as §1

CDK2/CycA2 = target: T12, CDK2/CycA2 (Homo sapiens, UniProt P24941)
T12 construct: purchased Reaction Biology Europe GmbH (formerly ProQinase)
Protocol: as §1

MST2 = target: T13, MST2 (Homo sapiens, UniProt Q13188)
T13 construct: purchased Reaction Biology Europe GmbH (formerly ProQinase)
T13 sequence (Q13188 1-491): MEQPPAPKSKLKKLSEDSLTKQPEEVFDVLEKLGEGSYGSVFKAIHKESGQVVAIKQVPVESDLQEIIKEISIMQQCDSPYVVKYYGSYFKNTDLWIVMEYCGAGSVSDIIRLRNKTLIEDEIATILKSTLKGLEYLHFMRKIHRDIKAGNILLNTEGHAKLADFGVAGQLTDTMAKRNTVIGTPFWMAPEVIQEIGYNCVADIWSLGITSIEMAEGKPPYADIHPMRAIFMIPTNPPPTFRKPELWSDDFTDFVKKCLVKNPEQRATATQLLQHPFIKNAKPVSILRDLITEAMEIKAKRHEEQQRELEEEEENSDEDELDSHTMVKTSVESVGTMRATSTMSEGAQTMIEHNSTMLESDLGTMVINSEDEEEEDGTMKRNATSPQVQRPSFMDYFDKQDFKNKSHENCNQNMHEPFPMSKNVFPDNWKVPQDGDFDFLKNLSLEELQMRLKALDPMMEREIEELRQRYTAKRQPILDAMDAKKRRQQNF
Protocol: as §1

CK1γ2 = target: T14, CK1γ2 (Homo sapiens, UniProt P78368)
T14 construct: purchased Reaction Biology Europe GmbH (formerly ProQinase)
T14 sequence (P78368 whole entry): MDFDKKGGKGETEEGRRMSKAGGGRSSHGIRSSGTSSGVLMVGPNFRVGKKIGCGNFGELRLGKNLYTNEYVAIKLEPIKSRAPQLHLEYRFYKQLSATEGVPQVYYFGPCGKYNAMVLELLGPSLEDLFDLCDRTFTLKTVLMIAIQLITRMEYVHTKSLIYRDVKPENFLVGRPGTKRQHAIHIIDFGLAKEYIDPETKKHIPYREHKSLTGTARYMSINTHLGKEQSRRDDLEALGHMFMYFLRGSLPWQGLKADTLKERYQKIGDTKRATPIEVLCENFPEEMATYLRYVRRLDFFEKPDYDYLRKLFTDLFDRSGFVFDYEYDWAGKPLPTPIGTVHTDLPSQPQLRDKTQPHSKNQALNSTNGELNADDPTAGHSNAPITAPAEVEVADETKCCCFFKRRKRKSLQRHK
Protocol: as §1

ACVR2A = target: T15, ACVR2A (Homo sapiens, UniProt P27037)
T15 construct: purchased Reaction Biology Europe GmbH (formerly ProQinase)
T15 sequence (P27037 20-513): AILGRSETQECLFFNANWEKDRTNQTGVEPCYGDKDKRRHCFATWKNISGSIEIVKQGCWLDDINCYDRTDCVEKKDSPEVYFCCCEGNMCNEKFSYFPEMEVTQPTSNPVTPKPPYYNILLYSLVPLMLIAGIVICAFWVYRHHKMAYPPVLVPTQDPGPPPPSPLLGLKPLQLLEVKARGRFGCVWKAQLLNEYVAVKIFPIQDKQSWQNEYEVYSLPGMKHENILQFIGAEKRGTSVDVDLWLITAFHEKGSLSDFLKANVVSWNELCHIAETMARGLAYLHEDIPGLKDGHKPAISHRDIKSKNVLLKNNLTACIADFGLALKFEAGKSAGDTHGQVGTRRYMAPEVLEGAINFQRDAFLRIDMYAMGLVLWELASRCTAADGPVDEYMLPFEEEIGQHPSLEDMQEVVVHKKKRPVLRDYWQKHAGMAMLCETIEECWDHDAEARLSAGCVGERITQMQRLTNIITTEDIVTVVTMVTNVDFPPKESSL
Protocol: as §1

LCK = target: T16, LCK (Homo sapiens, UniProt P06239)
T16 construct: purchased Reaction Biology Europe GmbH (formerly ProQinase)
T16 sequence (P06239 whole entry): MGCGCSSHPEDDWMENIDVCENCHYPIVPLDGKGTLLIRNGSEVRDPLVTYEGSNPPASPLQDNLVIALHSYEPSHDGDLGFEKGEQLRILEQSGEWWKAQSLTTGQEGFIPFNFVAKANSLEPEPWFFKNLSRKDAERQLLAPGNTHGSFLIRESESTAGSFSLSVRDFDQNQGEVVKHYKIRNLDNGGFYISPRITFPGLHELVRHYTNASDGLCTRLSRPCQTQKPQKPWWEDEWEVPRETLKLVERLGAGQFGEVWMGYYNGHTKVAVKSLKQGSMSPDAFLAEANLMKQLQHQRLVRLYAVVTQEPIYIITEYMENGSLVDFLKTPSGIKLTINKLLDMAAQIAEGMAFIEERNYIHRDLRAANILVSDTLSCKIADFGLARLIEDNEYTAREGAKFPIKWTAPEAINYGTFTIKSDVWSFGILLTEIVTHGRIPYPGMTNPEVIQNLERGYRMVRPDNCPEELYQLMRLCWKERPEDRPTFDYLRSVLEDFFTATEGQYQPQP
Protocol: as §1

TGFBR2 = target: T17, TGFBR2 (Homo sapiens, UniProt P37173)
T17 construct: purchased Reaction Biology Europe GmbH (formerly ProQinase)
T17 sequence (P37173 23-567): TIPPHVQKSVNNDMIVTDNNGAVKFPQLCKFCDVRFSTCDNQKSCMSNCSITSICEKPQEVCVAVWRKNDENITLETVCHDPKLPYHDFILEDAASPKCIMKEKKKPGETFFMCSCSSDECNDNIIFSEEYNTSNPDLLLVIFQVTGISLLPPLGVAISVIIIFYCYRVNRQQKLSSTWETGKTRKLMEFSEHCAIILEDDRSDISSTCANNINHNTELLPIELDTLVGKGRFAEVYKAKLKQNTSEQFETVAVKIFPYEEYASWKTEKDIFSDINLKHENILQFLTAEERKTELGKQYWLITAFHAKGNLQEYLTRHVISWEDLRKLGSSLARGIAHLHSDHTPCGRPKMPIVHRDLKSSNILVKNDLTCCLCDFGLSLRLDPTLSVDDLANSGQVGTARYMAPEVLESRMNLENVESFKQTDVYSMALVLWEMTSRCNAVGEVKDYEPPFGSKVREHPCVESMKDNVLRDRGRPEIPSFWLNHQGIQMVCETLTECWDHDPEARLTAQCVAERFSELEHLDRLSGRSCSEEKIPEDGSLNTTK
Protocol: as §1

T1 sequence (P31751 whole entry): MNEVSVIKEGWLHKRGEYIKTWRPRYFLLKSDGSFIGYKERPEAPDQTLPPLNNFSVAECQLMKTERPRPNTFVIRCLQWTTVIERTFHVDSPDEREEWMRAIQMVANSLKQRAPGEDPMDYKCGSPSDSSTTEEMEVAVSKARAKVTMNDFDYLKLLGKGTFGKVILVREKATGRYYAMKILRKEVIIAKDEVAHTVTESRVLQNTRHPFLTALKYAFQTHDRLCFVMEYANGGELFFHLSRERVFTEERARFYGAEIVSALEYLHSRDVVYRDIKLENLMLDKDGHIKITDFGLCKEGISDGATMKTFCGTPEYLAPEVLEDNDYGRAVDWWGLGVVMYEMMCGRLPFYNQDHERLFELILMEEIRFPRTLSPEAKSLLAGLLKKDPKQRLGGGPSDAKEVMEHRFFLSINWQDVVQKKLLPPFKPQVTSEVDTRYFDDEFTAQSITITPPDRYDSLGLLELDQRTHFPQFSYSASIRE

Compound | residual kinase activity (AKT2; 0.3 µM) | residual kinase activity (WNK2; 0.3 µM) | residual kinase activity (ERK1; 0.3 µM) | residual kinase activity (GRK6; 0.3 µM) | residual kinase activity (CDK4/CycD3; 0.3 µM) | residual kinase activity (PRKD2; 0.3 µM) | residual kinase activity (MYLK2; 0.3 µM) | residual kinase activity (ROCK2; 0.3 µM) | residual kinase activity (AuroraC; 0.3 µM) | residual kinase activity (LIMK2; 0.3 µM) | residual kinase activity (CDC7/DBF4; 0.3 µM) | residual kinase activity (CDK2/CycA2; 0.3 µM) | residual kinase activity (MST2; 0.3 µM) | residual kinase activity (CK1γ2; 0.3 µM) | residual kinase activity (ACVR2A; 0.3 µM) | residual kinase activity (LCK; 0.3 µM) | residual kinase activity (TGFBR2; 0.3 µM) | other results
COc1ccnc2[nH]cc(-c3cc(N)nc(N)c3)c12 [meriolin 16] | 79 % of control | 86 % of control | 96 % of control | 93 % of control | 51 % of control | 37 % of control | 32 % of control | 1 % of control | 95 % of control | 101 % of control | 12 % of control | 2 % of control | 77 % of control | 30 % of control | 103 % of control | 91 % of control | 85 % of control | residual kinase activity (AKT2; 0.03 µM): 98 % of control; residual kinase activity (WNK2; 0.03 µM): 99 % of control; residual kinase activity (ERK1; 0.03 µM): 111 % of control; residual kinase activity (GRK6; 0.03 µM): 98 % of control; residual kinase activity (CDK4/CycD3; 0.03 µM): 95 % of control; residual kinase activity (PRKD2; 0.03 µM): 87 % of control; residual kinase activity (MYLK2; 0.03 µM): 65 % of control; residual kinase activity (ROCK2; 0.03 µM): 12 % of control; residual kinase activity (AuroraC; 0.03 µM): 104 % of control; residual kinase activity (LIMK2; 0.03 µM): 106 % of control; residual kinase activity (CDC7/DBF4; 0.03 µM): 63 % of control; residual kinase activity (CDK2/CycA2; 0.03 µM): 18 % of control; residual kinase activity (MST2; 0.03 µM): 100 % of control; residual kinase activity (CK1γ2; 0.03 µM): 86 % of control; residual kinase activity (ACVR2A; 0.03 µM): 103 % of control; residual kinase activity (LCK; 0.03 µM): 87 % of control; residual kinase activity (TGFBR2; 0.03 µM): 109 % of control
c1ccc(CNc2cc(-c3c[nH]c4ncccc34)ccn2)cc1 [meriolin 36] | 102 % of control | 86 % of control | 72 % of control | 96 % of control | 34 % of control | 68 % of control | 61 % of control | 1 % of control | 76 % of control | 70 % of control | 10 % of control | 1 % of control | 19 % of control | 19 % of control | 94 % of control | 61 % of control | 72 % of control | residual kinase activity (AKT2; 3 µM): 75 % of control; residual kinase activity (WNK2; 3 µM): 74 % of control; residual kinase activity (ERK1; 3 µM): 37 % of control; residual kinase activity (GRK6; 3 µM): 54 % of control; residual kinase activity (CDK4/CycD3; 3 µM): 6 % of control; residual kinase activity (PRKD2; 3 µM): 25 % of control; residual kinase activity (MYLK2; 3 µM): 26 % of control; residual kinase activity (ROCK2; 3 µM): 0 % of control; residual kinase activity (AuroraC; 3 µM): 41 % of control; residual kinase activity (LIMK2; 3 µM): 27 % of control; residual kinase activity (CDC7/DBF4; 3 µM): 2 % of control; residual kinase activity (CDK2/CycA2; 3 µM): 2 % of control; residual kinase activity (MST2; 3 µM): 4 % of control; residual kinase activity (CK1γ2; 3 µM): 3 % of control; residual kinase activity (ACVR2A; 3 µM): 47 % of control; residual kinase activity (LCK; 3 µM): 18 % of control; residual kinase activity (TGFBR2; 3 µM): 24 % of control
